Patent US7759373B2, “Large conductance calcium-activated K channel opener” (Mitsubishi Tanabe Pharma Corporation, priority 2001, dated 2010)

tested on: rhythmic bladder contractions induced by substance P; assay: Inhibitory effect on the rhythmic bladder contractions induced by substance P in anesthetized rats; type: in vivo, rat; conditions: time during which frequency of rhythmic contraction was completely inhibited, 0.25 mg/kg of the compound, substance P infusion
Protocol: Inhibitory effect on the rhythmic bladder contractions induced by substance P in anesthetized rats
For the experiments, Sprague-Dawley female rats (9 to 12 weeks old) weighing between 200 to 300 g were used. After urethane anesthetization (subcutaneously administered with a dose of 1.2 g/kg), cannulae were placed in both right and left femoral veins. One intravenous catheter was used for administration of compounds, and the other was for the substance P (0.33 μg/kg/min) infusion. We also cannulated into ureter to pass urine. Polyethylene catheters were inserted into carotid artery for continuous monitoring of arterial blood pressure and heart rate. For continuous infusion, transurethral bladder catheter was inserted into the bladder through the urethra and tied in place by a ligature around the urethral orifice. One end of the catheter was attached to a pressure transducer in order to measure intravesical pressure. The other end of the catheter was used for infusion of saline into the bladder. After stabilization of blood pressure and heart rate and after the bladder was emptied, cystometry was performed by filling the bladder slowly with about 0.6 ml of saline. After about 10 minutes, intravenous infusion of substance P (0.33 μg/kg/min) was started for stabilization of the micturition reflex. Compounds were administered after stable rhythmic bladder contraction was obtained over 15 minutes. All compounds were dissolved or suspended in saline containing 0.5% Tween 80 for intravenous administration (0.1 ml/kg).
A 100% inhibition time (minute) of the selected compounds of the present invention is shown in the following Table 65 with a rank of A, B or C. These ranges are as mentioned below. A≧20>B≧10>C (minute)

Compound	100% inhibition time range
N#Cc1cccc(-c2oc(-c3ccc(F)cc3)nc2CC(=O)O)c1 [Preparation Example 522]	B (A≧20>B≧10>C (minute))
COc1ccc(-c2oc(-c3ccc(F)cc3)nc2CC(=O)O)cc1OC [Preparation Example 160]	C (A≧20>B≧10>C (minute))
CN(C)c1ccc(-c2nc(CC(=O)O)c(-c3cccs3)o2)cn1 [Preparation Example 259]	B (A≧20>B≧10>C (minute))
2-(4-fluorophenyl)-5-(2-thienyl)oxazole-4-yl propionic acid sodium salt [Preparation Example 338]	C (A≧20>B≧10>C (minute))
CC(O)c1ccc(-c2oc(-c3ccc(F)cc3)nc2CC(=O)O)s1 (stereo not shown) [Preparation Example 234]	C (A≧20>B≧10>C (minute))
O=C(O)Cc1nc(-c2ccc(F)cc2)oc1-c1cccc(O)c1 [Preparation Example 258]	C (A≧20>B≧10>C (minute))
C[S+]([O-])Cc1nc(-c2ccc(C#N)cc2)[nH]c1-c1ccccc1 (stereo not shown) [Preparation example 137]	C (A≧20>B≧10>C (minute))
CC(C(=O)O)c1nc(-c2ccc(F)cc2)oc1-c1ccsc1 (stereo not shown) [Preparation Example 613]	C (A≧20>B≧10>C (minute))
CC(C)c1ncc(-c2nc(CC(=O)O)c(-c3ccsc3)o2)cn1 [Preparation Example 476]	B (A≧20>B≧10>C (minute))
OCc1[nH]c(-c2csc(Cl)c2)nc1-c1cccnc1 [Preparation Example 482, 2-(5-chloro-thiophen-3-yl)-5-hydroxymethyl-4-(3-pyridyl)imidazole]	C (A≧20>B≧10>C (minute))
O=C(O)Cc1nc(-c2cc3ccccc3cn2)oc1-c1cccs1 [Preparation Example 276]	C (A≧20>B≧10>C (minute))
O=C(O)Cc1nc(-c2ccc(Cl)cc2)oc1-c1cccnc1 [Preparation example 142]	C (A≧20>B≧10>C (minute))
CS(=O)(=O)Nc1nc(-c2ccc(F)cc2)oc1-c1ccc(Cl)c(F)c1.[Na] [Preparation Example 348, 5-(4-chloro-3-fluorophenyl)-2-(4-fluorophenyl)oxazol-4-yl methanesulfonamide sodium salt]	C (A≧20>B≧10>C (minute))
O=C(O)Cc1nc(-c2ccc(CO)cc2)oc1-c1ccc(Cl)s1 [Preparation Example 436]	C (A≧20>B≧10>C (minute))
CN(C)c1ncc(-c2nc(-c3ccc(Cl)cc3)c(CC(=O)O)o2)cn1 [Preparation Example 513]	C (A≧20>B≧10>C (minute))
O=C(O)Cc1nc(-c2ccc(F)cc2)oc1-c1cccc(F)c1 [Preparation Example 236]	C (A≧20>B≧10>C (minute))
O=C(O)Cc1nc(-c2ccc(F)cc2)oc1-c1cc(Cl)ccc1O [Preparation Example 242]	C (A≧20>B≧10>C (minute))
CCc1[nH]c(-c2cc(Cl)sc2S(=O)(=O)O)nc1-c1cccnc1.Cl.Cl [Preparation example 143, 2-(5-Chloro-2-sulfothiophen-3-yl)-5-ethyl-4-(3-pyridyl)-imidazole dihydrochloride]	C (A≧20>B≧10>C (minute))
CCc1nc(-c2ccc(C)nc2)[nH]c1-c1ccccc1 [Preparation example 28]	B (A≧20>B≧10>C (minute))
Cc1cc(-c2nc(CC(=O)O)c(-c3ccc(Cl)cc3)o2)sc1C [Preparation Example 474]	C (A≧20>B≧10>C (minute))
Cn1c(-c2nc(CC(=O)O)c(-c3ccc(Cl)s3)o2)cc2ccccc21 [Preparation Example 472]	A (A≧20>B≧10>C (minute))
O=C(O)Cc1nc(-c2ccc(F)cc2)oc1-c1cccs1 [Preparation Example 614]	C (A≧20>B≧10>C (minute))
CC(C)c1ccc(-c2nc(CC(=O)O)c(-c3cccs3)o2)cc1 [Preparation Example 291]	C (A≧20>B≧10>C (minute))
CN(C)c1ccc(-c2nc(-c3ccc(Cl)s3)c(CC(=O)O)s2)cn1 [Preparation Example 571]	A (A≧20>B≧10>C (minute))
COc1ccc(-c2oc(-c3ccc(F)cc3)nc2CC(=O)O)cc1F [Preparation Example 250]	B (A≧20>B≧10>C (minute))

Compound	100% inhibition time range
Cc1cc(-c2oc(-c3ccc(F)cc3)nc2CC(=O)O)sc1CO [Preparation Example 233]	C (A≧20>B≧10>C (minute))
O=C(O)Cc1sc(-c2ccc(F)cc2)nc1-c1ccc(Cl)s1 [Preparation Example 568]	A (A≧20>B≧10>C (minute))
O=C(O)Cc1nc(-c2ccc(F)cc2)oc1-c1cccc(Cl)c1 [Preparation Example 241]	C (A≧20>B≧10>C (minute))
O=C(O)Cc1nc(-c2cc3ccccc3[nH]2)oc1-c1ccc(Cl)s1 [Preparation Example 466]	B (A≧20>B≧10>C (minute))
CCc1[nH]c(-c2sccc2CO)nc1-c1cccnc1.Cl.Cl [Preparation example 67, 5-ethyl-2-(3-hydroxymethylthiphen-2-yl)-4-(3-pyridyl)imidazole dihydrochloride]	B (A≧20>B≧10>C (minute))
CSc1ccc(-c2nc(CC(=O)O)c(-c3ccsc3)o2)cc1 [Preparation Example 440]	C (A≧20>B≧10>C (minute))
O=C(O)Cc1sc(-c2cc3ccccc3s2)nc1-c1ccc(Cl)c(F)c1 [Preparation Example 583]	B (A≧20>B≧10>C (minute))
COc1ccc(-c2nc(CC(=O)O)c(-c3ccsc3)o2)cn1 [Preparation Example 369]	B (A≧20>B≧10>C (minute))
CCOc1c(F)cc(-c2oc(-c3ccc(F)cc3)nc2CC(=O)O)cc1OC [Preparation Example 251]	C (A≧20>B≧10>C (minute))
COc1ccc(-c2nc(CC(=O)O)c(-c3ccc(Cl)c(F)c3)o2)cc1 [Preparation Example 525]	A (A≧20>B≧10>C (minute))
O=C(O)Cc1nc(-c2cc3ccccc3s2)oc1-c1ccc(Cl)c(F)c1 [Preparation Example 447]	B (A≧20>B≧10>C (minute))
O=C(O)Cc1nc(-c2ccc3c(c2)CCCS3)oc1-c1ccc(Cl)s1 [Preparation Example 456]	C (A≧20>B≧10>C (minute))
CCCc1nc(-c2ccc(C#N)cc2)[nH]c1-c1ccccc1 [Preparation example 31]	A (A≧20>B≧10>C (minute))
CCc1c(-c2cccnc2)nc(-c2ccc(F)cc2)n1C.Cl.Cl [Preparation example 102, 5-ethyl-2-(4-fluoro-phenyl)-1-methyl-4-(3-pyridyl)imidazole dihydrochloride]	C (A≧20>B≧10>C (minute))
O=C(O)Cc1nc(-c2cscn2)oc1-c1ccc(Cl)s1 [Preparation Example 274]	B (A≧20>B≧10>C (minute))
O=C(O)Cc1nc(-c2ccc3ccccc3n2)oc1-c1ccsc1 [Preparation Example 439]	C (A≧20>B≧10>C (minute))
O=C(O)Cc1nc(-c2ccc(F)cc2)oc1-c1ccco1 [Preparation Example 270]	B (A≧20>B≧10>C (minute))
CS(=O)(=O)Nc1nc(-c2ccc(F)cc2)oc1-c1ccsc1.[Na] [Preparation Example 380, N-[2-(4-fluorophenyl)-5-(3-thienyl)oxazol-4-yl]methanesulfonamide sodium salt]	C (A≧20>B≧10>C (minute))
CCc1[nH]c(-c2cc(Cl)sc2S(N)(=O)=O)nc1-c1cccnc1.Cl.Cl [Preparation example 144, 2-(5-Chloro-2-sulfamoylthiophen-3-yl)-5-ethyl-4-(3-pyridyl) imidazole dihydrochloride]	C (A≧20>B≧10>C (minute))
CCc1nc(-c2ccc(F)cc2)oc1-c1cccnc1 [Preparation Example 532]	C (A≧20>B≧10>C (minute))
O=C(O)Cc1sc(-c2ccc(Cl)cc2)nc1-c1ccc(Cl)s1 [Preparation Example 588]	C (A≧20>B≧10>C (minute))
COCc1nc(-c2cccc(F)c2)[nH]c1-c1ccccc1 [Preparation example 123]	C (A≧20>B≧10>C (minute))
COc1ccc(-c2nc(CC(=O)O)c(-c3ccc(Cl)cc3)o2)cc1 [Preparation Example 475]	B (A≧20>B≧10>C (minute))
Cc1ccc(-c2nc(CC(=O)O)c(-c3cccs3)o2)cc1 [Preparation Example 156]	B (A≧20>B≧10>C (minute))
